Measured values from US20080194551A1, “Acetylene Derivatives” (priority 2005, published 2008).

Tests used:
hmGluR5 = molecular target: T1, hmGluR5 (Homo sapiens, UniProt P41594); assay: Inhibition of quisqualate-induced inositol phosphate turnover in hmGluR5 expressing cells; assay type: cell-based; conditions: agonist quisqualate, read-out: IC50 concentration, inhibition of quisqualate-induced inositol phosphate turnover
T1 construct: expressed in transfected cells
From the text: This can be determined in vitro for example at recombinant human metabotropic glutamate receptors, especially PLC-coupled subtypes thereof such as mGluR5, using different procedures like, for example, measurement of the inhibition of the agonist induced elevation of intracellular Ca^2+ concentration in accordance with L. P. Daggett et al., Neuropharm. Vol. 34, pages 871-886 (1995), P. J. Flor et al., J. Neurochem. Vol. 67, pages 58-63 (1996) or by determination to what extent the agonist induced elevation of the inositol phosphate turnover is inhibited as described by T. Knoepfel et al., Eur. J. Pharmacol. Vol. 288, pages 389-392 (1994), L. P. Daggett et al., Neuropharm. Vol. 67, pages 58-63 (1996) and references cited therein. Isolation and expression of human mGluR subtypes are described in U.S. Pat. No. 5,521,297. Selected agents of the invention show IC50 values for the inhibition of the agonist (e.g. glutamate or quisqualate) induced elevation of intracellular Ca2+ concentration or the agonist (e.g. glutamate or quisqualate) induced inositol phosphate turnover, measured in recombinant cells expressing hmGluR5a of about 1 nM to about 50 μM.
4-(3-Chloro-phenylamino)-1-(3-chloro-phenylethynyl)-cyclohexanol inhibits the quisqualate-induced inositol phosphate turnover in hmGluR5 expressing cells with an IC50 concentration of 4000 nM.

T1 sequence (P41594 21-1180 isoform P41594-2 limits assumed): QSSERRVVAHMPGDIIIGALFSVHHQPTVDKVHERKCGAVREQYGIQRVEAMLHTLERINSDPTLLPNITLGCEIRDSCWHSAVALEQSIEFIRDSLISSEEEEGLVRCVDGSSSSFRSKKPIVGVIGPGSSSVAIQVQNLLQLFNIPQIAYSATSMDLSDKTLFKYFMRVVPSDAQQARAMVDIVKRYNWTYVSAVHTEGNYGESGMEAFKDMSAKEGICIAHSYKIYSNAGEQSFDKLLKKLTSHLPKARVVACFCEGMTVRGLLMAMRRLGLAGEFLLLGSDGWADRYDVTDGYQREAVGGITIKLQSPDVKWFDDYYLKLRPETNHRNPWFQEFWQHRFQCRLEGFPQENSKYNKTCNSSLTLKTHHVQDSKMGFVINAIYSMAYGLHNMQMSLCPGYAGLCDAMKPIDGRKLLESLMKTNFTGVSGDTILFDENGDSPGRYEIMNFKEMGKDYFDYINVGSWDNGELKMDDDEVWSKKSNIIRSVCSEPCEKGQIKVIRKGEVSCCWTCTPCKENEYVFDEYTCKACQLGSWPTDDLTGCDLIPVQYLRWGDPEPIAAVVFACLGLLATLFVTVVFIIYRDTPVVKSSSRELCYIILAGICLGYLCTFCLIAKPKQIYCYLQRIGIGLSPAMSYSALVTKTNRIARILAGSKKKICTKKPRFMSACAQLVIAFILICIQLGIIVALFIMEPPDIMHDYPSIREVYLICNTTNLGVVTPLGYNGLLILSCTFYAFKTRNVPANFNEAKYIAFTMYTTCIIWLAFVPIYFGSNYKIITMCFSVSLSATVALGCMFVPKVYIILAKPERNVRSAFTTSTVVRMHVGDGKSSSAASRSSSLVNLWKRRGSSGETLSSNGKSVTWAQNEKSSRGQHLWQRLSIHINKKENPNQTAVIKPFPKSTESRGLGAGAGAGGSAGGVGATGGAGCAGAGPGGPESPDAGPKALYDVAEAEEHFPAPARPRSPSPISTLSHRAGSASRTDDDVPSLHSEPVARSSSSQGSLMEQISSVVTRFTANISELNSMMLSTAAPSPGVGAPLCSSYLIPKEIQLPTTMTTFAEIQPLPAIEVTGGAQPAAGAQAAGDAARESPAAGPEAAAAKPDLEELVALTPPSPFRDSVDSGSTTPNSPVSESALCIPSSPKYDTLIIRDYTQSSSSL

| melting point [°C] | IC50 (hmGluR5) [µM] | SMILES |
| --- | --- | --- |
| 145 to 149 |  | OC1(C#Cc2cccc(Cl)c2)CCC(Nc2cc(Cl)cc(Cl)c2)CC1 (centres unmarked) [Example 2.6, 4-(3,5-Dichloro-phenylamino)-1-(3-chloro-phenylethynyl)-cyclohexanol] |
|  | 4 | OC1(C#Cc2cccc(Cl)c2)CCC(Nc2cccc(Cl)c2)CC1 (centres unmarked) [Example 2.2, 4-(3-Chloro-phenylamino)-1-(3-chloro-phenylethynyl)-cyclohexanol] |
